Test [1] concerns T-47D. The experiment in a line: MTT anti-proliferative assay, T-47D. Conditions: 48 h exposure, mean ± S.D. of 3 separate experiments. The class given is cell-based, human. The method, then: (§1) The cytotoxic effects of herein prepared pyrazole- thiazol-4-one hybrids 9a-p against BC MDA-MB-231 and T-47D cell lines, obtained from American Type Culture Collection (ATCC), were determined using the MTT assay protocol. It is worth to mention that the selected cancer cell lines in this study are EGFR-expressing cell lines[25]–[28]. Doxorubicin and Erolitinib were utilized as positive control (Table 1).
(§2) All the biological assays conducted in this study were performed as reported earlier; MTT cytotoxicity[31],[32] cell cycle, Annexin V-FITC Apoptosis[34]–[36] and EGFR kinase[37] assays, (Supplementary Materials).
(§3) 1. Anti-proliferative activity
(§4) The two examined breast cancer cell lines (MDA-MB-231 and T-47D) as well as the normal breast MCF-10A cells have been obtained from American Type Culture Collection (ATCC). Cells lines were maintained as monolayers in Dulbecco’s Modified Eagle’s Medium (DMEM) supplemented with 10% FBS, 2 mM L-glutamine, 100 U/ml penicillin and 100µg/ml streptomycin sulfate. Cells were sub-cultured with trypsine /EDTA solution, counted with haemocytometer and plated onto 96-well plates (5000 cells/well) and left overnight to form a semi-confluent monolayer.
(§5) Cell monolayers were treated in quadrates with vehicle (DMSO, 0.1% v/v), test samples (thiazolyl-pyrazolines 9a-p) or Doxorubicin as positive control for an exposure time of 48 h. At the end of exposure, MTT solution in PBS (5 mg/ml) was then added to all well including no cell blank and left to incubate for 90 min. The formation of formazan crystals were visually confirmed using phase contract microscopy. DMSO (100 µl/well) was added to dissolve the formazan crystals with shaking for 10 min after which the absorbance was read at 590 nm against no cell blanks on a FLuo Star Optima microplate reader (BMG technologies, Germany). Cell proliferation was calculated comparing the OD values of the DMSO control wells and those of the samples represented as % proliferation to the control. Dose-response experiment was performed on samples producing > or =50% loss of cell proliferation using five serial 2-fold dilutions (50, 25, 12.5, 6.25 and 3.125 µM) of the sample. IC50 values (concentration of sample causing 50% loss of cell proliferation of the vehicle control) were calculated using non-linear regression curve fitting of the dose response plots on GraphPad Prism V.6.0 software. […]
A general note: Formazan colour is commonly taken as a measure of viable cells.

The test system of test [2] is MDA-MB-231. The experiment in a line: MTT anti-proliferative assay, MDA-MB-231. The class given is cell-based, human. Conditions: mean ± S.D. of 3 separate experiments. The method, then: as §1, §2, §3, §4, §5
Test [3] deals with MCF-10A. As to the kind of experiment: MTT cytotoxicity toward normal breast MCF-10A cells. It is filed as cell-based. Conditions: Homo sapiens, 48 h exposure, mean ± S.D. of 3 separate experiments. On the procedure: as §2, §3, §4, §5
The subject of test [4] is MDA-MB-231 cells. The experiment in a line: Cell cycle analysis by PI flow cytometry. The class given is cell-based, human. Conditions: at IC50 concentration (9g 0.62 µM, 9k 1.14 µM), 24 h; for %Sub-G1: control 2.13%; for %S: control 32.11%. The method, then: All the biological assays conducted in this study were performed as reported earlier; MTT cytotoxicity[31],[32] cell cycle, Annexin V-FITC Apoptosis[34]–[36] and EGFR kinase[37] assays, (Supplementary Materials). […]
The two examined breast cancer cell lines (MDA-MB-231 and T-47D) as well as the normal breast MCF-10A cells have been obtained from American Type Culture Collection (ATCC). Cells lines were maintained as monolayers in Dulbecco’s Modified Eagle’s Medium (DMEM) supplemented with 10% FBS, 2 mM L-glutamine, 100 U/ml penicillin and 100µg/ml streptomycin […]
sulfate. […]
Breast cancer MDA-MB-231 cells were treated with compounds 9g and 9k for 24 h (at their IC50 concentration), and then cells were washed twice with ice-cold phosphate buffered saline (PBS). Subsequently, the treated cells were collected by centrifugation, fixed in ice-cold 70% (v/v) ethanol, washed with PBS, re-suspended with 100 μg/mL RNase, stained with 40 μg/mL PI, and analyzed by flow cytometry using FACS Calibur (Becton Dickinson, BD, Franklin Lakes, NJ, USA). The cell cycle distributions were calculated using CellQuest software 5.1 (Becton
In general terms: Flow cytometry measures light scatter and fluorescence of single cells or particles in a stream.

For test [5], the system named is MDA-MB-231 cells. As to the kind of experiment: Annexin V-FITC/PI apoptosis assay. The class given is cell-based, human. Conditions: at IC50 concentration (9g 0.62 µM, 9k 1.14 µM), 48 h; for Late apoptosis (upper right %): control 0.21%; for Early apoptosis (lower right %): control 0.73%; for Total apoptosis (L.R % + U.R %): control 0.94%. On the procedure:
as §2
3. Annexin V-FITC Apoptosis Assay
Phosphatidylserine externalization was assayed using Annexin V-FITC/PI apoptosis detection kit (BD Biosciences, USA) according to the manufacturer’s instructions. Breast cancer MDA-MB-231 cells were cultured to a monolayer then treated with compounds 9g and 9k at their IC50 concentration. Briefly, cells were then harvested via trypsinization, and rinsed twice in PBS followed by binding buffer. Moreover, cells were re-suspended in 100 μL of binding buffer with the addition of 1 μL of FITC-Annexin V followed by an incubation period of 30 min at 4 °C. Cells were then rinsed in binding buffer and resuspended in 150 μL of binding buffer with the addition

In test [6] the target is EGFR (Homo sapiens, UniProt P00533). As to the kind of experiment: EGFR kinase inhibitory activity (ADP-Glo Kinase Assay).
Experimental: Cells were then analyzed using the flow cytometer BD FACS Canto II and the results were interpreted with FlowJo7.6.4 software (Tree Star, Ashland, OR, 4. EGFR Kinase Inhibitory Activity
ADP-Glo™ Kinase Assay (Promega, Catalogue No. V3831) which is a luminescent kinase assay that measures ADP formed from a kinase reaction. ADP is converted into ATP which is converted into light by Ultra‐Glo™ Luciferase. The luminescent signal positively correlates with ADP amount and kinase activity.
Protocol: first dilute enzyme, substrate, ATP and inhibitors in Tyrosine Kinase Buffer (40 mM Tris,7.5; 20 mM MgCl2; 0.1 mg/ml BSA (bovine serum albumin); 2 mM MnCl2; 50μM DTT),
and 2 μl of substrate/ATP mix. Incubate at room temperature for 60 minutes, add 5 μl of ADP‐ Glo™ Reagent, incubate at room temperature for 40 minutes, add 10 μl of Kinase Detection reagent, incubate at room temperature for 30 minutes and finally record luminescence (Integration time 0.5‐1second).
Where [7] appears, read: Homo sapiens, MDA-MB-231, 48 h, 48 h exposure.

This note sets out measurements from paper PMC9329325, “Design, synthesis, in vitro biological assessment and molecular modeling insights for novel 3-(naphthalen-1-yl)-4,5-dihydropyrazoles as anticancer agents with potential EGFR inhibitory activity” (Scientific Reports, 2022).

EGFR, sequence (P00533 25-1210): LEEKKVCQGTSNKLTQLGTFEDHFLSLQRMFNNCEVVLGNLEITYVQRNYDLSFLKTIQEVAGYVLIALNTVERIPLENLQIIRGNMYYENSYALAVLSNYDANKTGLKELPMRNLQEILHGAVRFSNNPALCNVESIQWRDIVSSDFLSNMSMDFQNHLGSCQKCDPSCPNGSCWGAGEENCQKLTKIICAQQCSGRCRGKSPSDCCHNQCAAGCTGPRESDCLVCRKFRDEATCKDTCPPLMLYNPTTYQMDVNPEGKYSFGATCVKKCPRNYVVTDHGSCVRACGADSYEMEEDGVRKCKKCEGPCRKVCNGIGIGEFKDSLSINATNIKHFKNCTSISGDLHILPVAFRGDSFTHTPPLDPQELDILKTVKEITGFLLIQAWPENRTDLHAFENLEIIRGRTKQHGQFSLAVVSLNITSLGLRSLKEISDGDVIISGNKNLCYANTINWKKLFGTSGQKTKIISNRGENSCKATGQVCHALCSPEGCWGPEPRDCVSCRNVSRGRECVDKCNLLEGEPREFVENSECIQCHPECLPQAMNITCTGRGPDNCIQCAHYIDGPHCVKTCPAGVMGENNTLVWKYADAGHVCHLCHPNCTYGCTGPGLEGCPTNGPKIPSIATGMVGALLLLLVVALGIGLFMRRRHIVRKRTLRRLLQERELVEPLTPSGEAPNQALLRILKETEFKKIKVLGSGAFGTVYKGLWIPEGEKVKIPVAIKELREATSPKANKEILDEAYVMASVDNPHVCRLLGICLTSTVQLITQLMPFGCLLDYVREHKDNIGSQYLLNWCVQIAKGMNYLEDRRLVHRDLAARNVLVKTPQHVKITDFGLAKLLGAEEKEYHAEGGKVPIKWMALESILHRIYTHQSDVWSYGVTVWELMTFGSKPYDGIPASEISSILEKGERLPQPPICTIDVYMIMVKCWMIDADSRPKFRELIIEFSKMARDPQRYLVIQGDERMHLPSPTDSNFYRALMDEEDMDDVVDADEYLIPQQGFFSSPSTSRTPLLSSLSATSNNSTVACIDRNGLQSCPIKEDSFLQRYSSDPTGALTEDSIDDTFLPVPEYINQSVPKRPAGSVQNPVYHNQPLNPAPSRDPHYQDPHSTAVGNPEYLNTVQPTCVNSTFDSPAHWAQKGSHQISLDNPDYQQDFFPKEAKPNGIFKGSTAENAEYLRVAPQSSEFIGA

What is called IC50 is the concentration at which inhibition is half-maximal. Higher therefore signals a need for much substance. Take `O=C1N=C(N2N=C(c3cccc4ccccc34)CC2c2ccc(F)cc2)S/C1=C/c1ccccc1` (stereo not shown) [Compound 9a]: the half-inhibitory concentration (IC50) in test [1] was greater than 100 µM; in test [1] (Homo sapiens, T47D, 48 h) it was greater than 100 µM; in test [2] (setting [7]), 19.8 ± 1.08 µM. Moreover, the “IC50 T-47D” value in test [1] is “inactive”.

Regarding `O=C1N=C(N2N=C(c3cccc4ccccc34)CC2c2ccc(F)cc2)S/C1=C/c1ccc(O)cc1` (stereo not shown) [Compound 9b], the concentration for half-maximal inhibition (IC50) in test [1] (Homo sapiens, T47D, 48 h) came out at 18.6 ± 0.87 µM; in test [2] (setting [7]), 12.2 ± 0.67 µM.

`CN(C)c1ccc(/C=C2/SC(N3N=C(c4cccc5ccccc45)CC3c3ccc(F)cc3)=NC2=O)cc1` (stereo not shown) [Compound 9c]: the IC50 was determined as 8.45 ± 0.27 µM in test [1] (Homo sapiens, T47D, 48 h) and 47 ± 3.52 µM in test [3].

Take `COc1ccccc1/C=C1/SC(N2N=C(c3cccc4ccccc34)CC2c2ccc(F)cc2)=NC1=O` (stereo not shown) [Compound 9d]: the IC50 in test [1] was greater than 100 µM; in test [1] (Homo sapiens, T47D, 48 h) it was greater than 100 µM; in test [2] (setting [7]) it was 45 ± 2.45 µM. The “IC50 T-47D” value in test [1] was “inactive”.

Turning to `COc1ccc(/C=C2/SC(N3N=C(c4cccc5ccccc45)CC3c3ccc(F)cc3)=NC2=O)cc1` (stereo not shown) [Compound 9e], the IC50 was 12.4 ± 0.33 µM in test [1] (Homo sapiens, T47D, 48 h) and 14.1 ± 0.77 µM in test [2] (setting [7]).

With `COc1cccc(/C=C2/SC(N3N=C(c4cccc5ccccc45)CC3c3ccc(F)cc3)=NC2=O)c1O` (stereo not shown) [Compound 9f], the IC50 in test [1] (Homo sapiens, T47D, 48 h) was found to be 27.1 ± 1.08 µM; in test [3], 42.6 ± 2.81 µM.

`COc1ccc(C=C2SC(N3N=C(c4cccc5ccccc45)CC3c3ccc(F)cc3)=NC2=O)cc1O` (stereo not shown) [Compound 9g]: in test [4], the “%Sub-G1” value was 31.05% and the “%S” value came to 35.43%. Besides, in test [4] (control 12.31%), the “%G2/M” value worked out at 2%. Further, in test [5], the “Late apoptosis (upper right %)” value was 23.93%, the “Early apoptosis (lower right %)” value was 8.39% and the “Total apoptosis (L.R % + U.R %)” value was 32.32%. The compound also came in with an IC50 in test [1] (Homo sapiens, T47D, 48 h) of 3.14 ± 0.11 µM. In test [3], this compound gave an IC50 of 31.7 ± 3.1 µM. The compound further displayed an IC50 in test [6] of 0.267 ± 0.012 µM.

Take `COc1cc(/C=C2/SC(N3N=C(c4cccc5ccccc45)CC3c3ccc(F)cc3)=NC2=O)ccc1O` (stereo not shown) [Compound 9h]: the IC50 in test [1] (Homo sapiens, T47D, 48 h) was 11.4 ± 0.67 µM; in test [2] (48 h exposure) it was 5.82 ± 0.317 µM; in test [2] (setting [7]), less than 10 µM; in test [3] it was 79.5 ± 5.27 µM.

Turning to `O=C1N=C(N2N=C(c3cccc4ccccc34)CC2c2ccc(Cl)cc2)S/C1=C/c1ccccc1` (stereo not shown) [Compound 9i], the concentration for half-maximal inhibition (IC50) was greater than 100 µM in test [1]; greater than 100 µM in test [1] (Homo sapiens, T47D, 48 h); 24.7 ± 1.35 µM in test [2] (setting [7]). The “IC50 T-47D” value in test [1] is “inactive”.

`O=C1N=C(N2N=C(c3cccc4ccccc34)CC2c2ccc(Cl)cc2)S/C1=C/c1ccc(O)cc1` (stereo not shown) [Compound 9j]: the half-inhibitory concentration (IC50) in test [1] (Homo sapiens, T47D, 48 h) was 35.1 ± 2.04 µM; in test [2] (48 h exposure), 6.24 ± 0.34 µM; in test [2] (setting [7]) it was less than 10 µM; in test [3], 65.4 ± 5.04 µM.

Take `CN(C)c1ccc(C=C2SC(N3N=C(c4cccc5ccccc45)CC3c3ccc(Cl)cc3)=NC2=O)cc1` (stereo not shown) [Compound 9k]: in test [4], the “%Sub-G1” value is 27.86% and the “%S” value stood at 28.45%. In addition, in test [4] (control 53.45%), the “%G0-G1” value was found to be 40.61%. Also, in test [5], the “Late apoptosis (upper right %)” value is recorded as 20%, the “Early apoptosis (lower right %)” value was determined as 14.22% and the “Total apoptosis (L.R % + U.R %)” value turned out to be 34.22%. In test [1] (Homo sapiens, T47D, 48 h), this compound yielded an IC50 of 4.92 ± 0.28 µM. In test [3], this compound came in with an IC50 of 58.5 ± 4.36 µM. This compound also displayed an IC50 in test [6] of 0.395 ± 0.017 µM.

In the case of `COc1ccccc1/C=C1/SC(N2N=C(c3cccc4ccccc34)CC2c2ccc(Cl)cc2)=NC1=O` (stereo not shown) [Compound 9l], the IC50 in test [1] is greater than 100 µM; in test [1] (Homo sapiens, T47D, 48 h), greater than 100 µM; in test [2] (setting [7]), 58 ± 3.16 µM. For the same compound, the “IC50 T-47D” value in test [1] was “inactive”.

On to `COc1ccc(/C=C2/SC(N3N=C(c4cccc5ccccc45)CC3c3ccc(Cl)cc3)=NC2=O)cc1` (stereo not shown) [Compound 9m], for which the IC50 in test [1] (Homo sapiens, T47D, 48 h) was determined as 27.6 ± 1.24 µM; in test [2] (setting [7]), 18.9 ± 1.03 µM.

Regarding `COc1cccc(/C=C2/SC(N3N=C(c4cccc5ccccc45)CC3c3ccc(Cl)cc3)=NC2=O)c1O` (stereo not shown) [Compound 9n], the IC50 is 67.3 ± 2.51 µM in test [1] (Homo sapiens, T47D, 48 h) and 35.1 ± 1.92 µM in test [2] (setting [7]).

`COc1ccc(/C=C2/SC(N3N=C(c4cccc5ccccc45)CC3c3ccc(Cl)cc3)=NC2=O)cc1O` (stereo not shown) [Compound 9o]: the IC50 was found to be 7.36 ± 0.3 µM in test [1] (Homo sapiens, T47D, 48 h) and 10.8 ± 0.59 µM in test [2] (setting [7]).

`COc1cc(/C=C2/SC(N3N=C(c4cccc5ccccc45)CC3c3ccc(Cl)cc3)=NC2=O)ccc1O` (stereo not shown) [Compound 9p]: the IC50 was found to be 19.5 ± 0.92 µM in test [1] (Homo sapiens, T47D, 48 h); 6.55 ± 0.357 µM in test [2] (48 h exposure); 10.8 ± 0.59 µM in test [2] (setting [7]); 83.6 ± 6.74 µM in test [3].

Regarding `COc1cccc2c1C(=O)c1c(O)c3c(c(O)c1C2=O)C[C@@](O)(C(=O)CO)C[C@@H]3O[C@H]1C[C@H](N)[C@H](O)[C@H](C)O1` [Doxorubicin, reference compound], the IC50 in test [1] (Homo sapiens, T47D, 48 h) came to 2.73 ± 0.09 µM; in test [2] (setting [7]), 3.67 ± 0.2 µM.

With `C#Cc1cccc(Nc2ncnc3cc(OCCOC)c(OCCOC)cc23)c1` [Erlotinib, reference compound], the half-inhibitory concentration (IC50) is 3.61 ± 0.24 µM in test [1] (Homo sapiens, T47D) and 2.88 ± 0.17 µM in test [2] (Homo sapiens, MDA-MB-231, 48 h exposure).
